# In patent publication US20260042764A1, “COMPOSITIONS AND METHODS FOR INHIBITION OF KRAS” (TheRas, Inc., priority 2022, published 2026):
# Target: T1, Avi-KRAS G12D (1-169) GppNHp/RAF1 RBD-3xFLAG (52-151) (Homo sapiens, UniProt P01116, G12D)
# T1 construct: Avi-KRAS G12D (1-169)
# Experiment: Raf1-KRAS G12D-GppNHP disruption HTRF assay (Biological Example 1)
# Format: binding
# Settings: KRAS G12D, GppNHp-loaded; Table 11
# Procedure, shortened: (§1)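 Read-out is HTRF signal of the KRAS–RAF1 RBD complex, reported as percentage of activity relative to DMSO (100%). Protein mix and detection reagents each incubated 1 h at room temperature with 700 rpm shaking. Buffer: 50 mM Tris pH 7.5, 100 mM NaCl, 5 mM MgCl2, 0.1% BSA, 0.01% Tween, 10% DMSO.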
# T1 sequence (P01116 1-169 isoform P01116-2 G12D): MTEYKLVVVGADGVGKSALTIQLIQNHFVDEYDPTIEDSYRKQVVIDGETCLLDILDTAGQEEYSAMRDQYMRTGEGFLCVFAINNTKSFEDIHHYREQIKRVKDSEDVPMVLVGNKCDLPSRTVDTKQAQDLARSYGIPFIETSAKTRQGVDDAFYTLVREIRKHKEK
row,SMILES,IC50 [nM]
1,CCN(CC)c1nc(OC[C@@]23CCCN2C[C@H](F)C3)nc2c(F)c(-c3ccc(F)c4sc(N)c(C#N)c34)c(C(F)(F)F)cc12 [Compound 152],< 100
2,CCN(c1nc(OC[C@@]23CCCN2C[C@H](F)C3)nc2c(F)c(-c3ccc(F)c4sc(N)c(C#N)c34)c(C(F)(F)F)cc12)C(C)C [Compound 154],100 to 1000
3,CCN(c1nc(OC[C@@]23CCCN2C[C@H](F)C3)nc2c(F)c(-c3ccc(F)c4sc(N)c(C#N)c34)c(C(F)(F)F)cc12)C1CC1 [Compound 155],100 to 1000
4,N#Cc1c(N)sc2c(F)ccc(-c3c(C(F)(F)F)cc4c(N5CCCC5)nc(OC[C@@]56CCCN5C[C@H](F)C6)nc4c3F)c12 [Compound 156],100 to 1000
5,N#Cc1c(N)sc2c(F)ccc(-c3c(C(F)(F)F)cc4c(N5C[C@@H](F)[C@@H](F)C5)nc(OC[C@@]56CCCN5C[C@H](F)C6)nc4c3F)c12 [Compound 157],100 to 1000
6,N#Cc1c(N)sc2c(F)ccc(-c3c(C(F)(F)F)cc4c(N5C[C@H](F)[C@@H](F)C5)nc(OC[C@@]56CCCN5C[C@H](F)C6)nc4c3F)c12 [Compound 158],100 to 1000

# Target: T2, Avi-KRAS G12R (1-169) GppNHp/RAF1 RBD-3xFLAG (52-151) (Homo sapiens, UniProt P01116, G12R)
# T2 construct: Avi-KRAS G12R (1-169)
# Experiment: Raf1-KRAS G12R-GppNHP disruption HTRF assay (Biological Example 1)
# Format: binding
# Settings: KRAS G12R, GppNHp-loaded; Table 11
# Procedure, shortened: as §1
# T2 sequence (P01116 1-169 isoform P01116-2 G12R): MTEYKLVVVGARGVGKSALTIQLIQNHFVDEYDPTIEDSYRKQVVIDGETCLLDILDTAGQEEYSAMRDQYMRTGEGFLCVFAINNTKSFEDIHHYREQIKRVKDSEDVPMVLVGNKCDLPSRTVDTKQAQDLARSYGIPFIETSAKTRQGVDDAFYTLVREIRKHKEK
row,SMILES,IC50 [nM]
1,CCN(CC)c1nc(OC[C@@]23CCCN2C[C@H](F)C3)nc2c(F)c(-c3ccc(F)c4sc(N)c(C#N)c34)c(C(F)(F)F)cc12 [Compound 152],100 to 1000
2,CCN(c1nc(OC[C@@]23CCCN2C[C@H](F)C3)nc2c(F)c(-c3ccc(F)c4sc(N)c(C#N)c34)c(C(F)(F)F)cc12)C(C)C [Compound 154],100 to 1000
3,CCN(c1nc(OC[C@@]23CCCN2C[C@H](F)C3)nc2c(F)c(-c3ccc(F)c4sc(N)c(C#N)c34)c(C(F)(F)F)cc12)C1CC1 [Compound 155],100 to 1000
4,N#Cc1c(N)sc2c(F)ccc(-c3c(C(F)(F)F)cc4c(N5CCCC5)nc(OC[C@@]56CCCN5C[C@H](F)C6)nc4c3F)c12 [Compound 156],100 to 1000
5,N#Cc1c(N)sc2c(F)ccc(-c3c(C(F)(F)F)cc4c(N5C[C@@H](F)[C@@H](F)C5)nc(OC[C@@]56CCCN5C[C@H](F)C6)nc4c3F)c12 [Compound 157],100 to 1000
6,N#Cc1c(N)sc2c(F)ccc(-c3c(C(F)(F)F)cc4c(N5C[C@H](F)[C@@H](F)C5)nc(OC[C@@]56CCCN5C[C@H](F)C6)nc4c3F)c12 [Compound 158],100 to 1000

# Target: T3, Avi-KRAS G12V (1-169) GppNHp/RAF1 RBD-3xFLAG (52-151) (Homo sapiens, UniProt P01116, G12V)
# T3 construct: Avi-KRAS G12V (1-169)
# Experiment: Raf1-KRAS G12V-GppNHP disruption HTRF assay (Biological Example 1)
# Format: binding
# Settings: KRAS G12V, GppNHp-loaded; Table 11
# Procedure, shortened: as §1
# T3 sequence (P01116 1-169 isoform P01116-2 G12V): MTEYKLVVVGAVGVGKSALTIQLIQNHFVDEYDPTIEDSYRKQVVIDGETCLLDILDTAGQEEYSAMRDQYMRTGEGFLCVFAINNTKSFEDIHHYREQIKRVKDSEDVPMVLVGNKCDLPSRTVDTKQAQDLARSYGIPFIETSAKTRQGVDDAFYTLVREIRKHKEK
row,SMILES,IC50 [nM]
1,CCN(CC)c1nc(OC[C@@]23CCCN2C[C@H](F)C3)nc2c(F)c(-c3ccc(F)c4sc(N)c(C#N)c34)c(C(F)(F)F)cc12 [Compound 152],100 to 1000
2,CCN(c1nc(OC[C@@]23CCCN2C[C@H](F)C3)nc2c(F)c(-c3ccc(F)c4sc(N)c(C#N)c34)c(C(F)(F)F)cc12)C(C)C [Compound 154],100 to 1000
3,CCN(c1nc(OC[C@@]23CCCN2C[C@H](F)C3)nc2c(F)c(-c3ccc(F)c4sc(N)c(C#N)c34)c(C(F)(F)F)cc12)C1CC1 [Compound 155],1000 to 10000
4,N#Cc1c(N)sc2c(F)ccc(-c3c(C(F)(F)F)cc4c(N5CCCC5)nc(OC[C@@]56CCCN5C[C@H](F)C6)nc4c3F)c12 [Compound 156],100 to 1000
5,N#Cc1c(N)sc2c(F)ccc(-c3c(C(F)(F)F)cc4c(N5C[C@@H](F)[C@@H](F)C5)nc(OC[C@@]56CCCN5C[C@H](F)C6)nc4c3F)c12 [Compound 157],1000 to 10000
6,N#Cc1c(N)sc2c(F)ccc(-c3c(C(F)(F)F)cc4c(N5C[C@H](F)[C@@H](F)C5)nc(OC[C@@]56CCCN5C[C@H](F)C6)nc4c3F)c12 [Compound 158],100 to 1000

# Target: T4, Avi-KRAS WT (1-169) GppNHp/RAF1 RBD-3xFLAG (52-151) (Homo sapiens, UniProt P01116)
# T4 construct: Avi-KRAS WT (1-169)
# Experiment: Raf1-KRAS WT-GppNHP disruption HTRF assay (Biological Example 1)
# Format: binding
# Settings: KRAS WT, GppNHp-loaded; Table 11
# Procedure, shortened: as §1
# T4 sequence (P01116 1-169 isoform P01116-2): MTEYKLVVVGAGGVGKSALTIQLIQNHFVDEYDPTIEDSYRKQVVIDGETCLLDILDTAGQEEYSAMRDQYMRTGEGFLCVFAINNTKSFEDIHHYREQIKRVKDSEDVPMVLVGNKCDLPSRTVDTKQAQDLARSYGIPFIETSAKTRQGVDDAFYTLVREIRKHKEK
row,SMILES,IC50 [nM]
1,CCN(CC)c1nc(OC[C@@]23CCCN2C[C@H](F)C3)nc2c(F)c(-c3ccc(F)c4sc(N)c(C#N)c34)c(C(F)(F)F)cc12 [Compound 152],100 to 1000
2,CCN(c1nc(OC[C@@]23CCCN2C[C@H](F)C3)nc2c(F)c(-c3ccc(F)c4sc(N)c(C#N)c34)c(C(F)(F)F)cc12)C(C)C [Compound 154],100 to 1000
3,CCN(c1nc(OC[C@@]23CCCN2C[C@H](F)C3)nc2c(F)c(-c3ccc(F)c4sc(N)c(C#N)c34)c(C(F)(F)F)cc12)C1CC1 [Compound 155],1000 to 10000
4,N#Cc1c(N)sc2c(F)ccc(-c3c(C(F)(F)F)cc4c(N5CCCC5)nc(OC[C@@]56CCCN5C[C@H](F)C6)nc4c3F)c12 [Compound 156],100 to 1000
5,N#Cc1c(N)sc2c(F)ccc(-c3c(C(F)(F)F)cc4c(N5C[C@@H](F)[C@@H](F)C5)nc(OC[C@@]56CCCN5C[C@H](F)C6)nc4c3F)c12 [Compound 157],100 to 1000
6,N#Cc1c(N)sc2c(F)ccc(-c3c(C(F)(F)F)cc4c(N5C[C@H](F)[C@@H](F)C5)nc(OC[C@@]56CCCN5C[C@H](F)C6)nc4c3F)c12 [Compound 158],100 to 1000

# Tested on: GP2d cells (KRAS G12D)
# Experiment: Cell-based pERK HTRF assay in GP2d cell (Biological Example 2)
# Settings: GP2d, GP2d (KRAS G12D) cells, pERK HTRF
# Procedure, shortened: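 Cells grown in DMEM with 10% FBS were exposed to compound for 60 min at 0.25% DMSO, using a 9-point half-log series starting at 1 μM or 100 nM. Lysates were then mixed with d2 and Eu cryptate antibodies for 4–24 h at room temperature, and pERK was read by HTRF.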
row,SMILES,IC50 [nM]
1,CCN(CC)c1nc(OC[C@@]23CCCN2C[C@H](F)C3)nc2c(F)c(-c3ccc(F)c4sc(N)c(C#N)c34)c(C(F)(F)F)cc12 [Compound 152],< 100
2,CCN(c1nc(OC[C@@]23CCCN2C[C@H](F)C3)nc2c(F)c(-c3ccc(F)c4sc(N)c(C#N)c34)c(C(F)(F)F)cc12)C(C)C [Compound 154],< 100
3,CCN(c1nc(OC[C@@]23CCCN2C[C@H](F)C3)nc2c(F)c(-c3ccc(F)c4sc(N)c(C#N)c34)c(C(F)(F)F)cc12)C1CC1 [Compound 155],< 100
4,N#Cc1c(N)sc2c(F)ccc(-c3c(C(F)(F)F)cc4c(N5CCCC5)nc(OC[C@@]56CCCN5C[C@H](F)C6)nc4c3F)c12 [Compound 156],< 100
5,N#Cc1c(N)sc2c(F)ccc(-c3c(C(F)(F)F)cc4c(N5C[C@@H](F)[C@@H](F)C5)nc(OC[C@@]56CCCN5C[C@H](F)C6)nc4c3F)c12 [Compound 157],< 100
6,N#Cc1c(N)sc2c(F)ccc(-c3c(C(F)(F)F)cc4c(N5C[C@H](F)[C@@H](F)C5)nc(OC[C@@]56CCCN5C[C@H](F)C6)nc4c3F)c12 [Compound 158],< 100
